According to US20250122567A1, “Methods of Identifying and Treating Subjects having Inflammatory Subphenotypes of Asthma” (National Jewish Health, priority 2015, published 2025):

Experiments:
[1] = test system: DPP4; experiment: IL-13 treatment of ALI differentiated bronchial epithelial cells, DPP4 expression; assay type: cell-based; conditions: IL-13 10 ng/ml, 24 hours
Protocol: FIGS. 12A and 12B show pairs of Air-liquid interface (ALI) differentiated bronchial epithelial cells (BEC) from 5 donors that were treated for 24 hours with IL-13 cytokine (10 ng/ml) and vehicle control. (FIG. 12A) RNA was extracted from all control and IL-13 treated ALI membranes. RNA was used in 5′ nuclease qPCR assays to determine DPP4 and housekeeping gene expression. Normalized DPP4 expression for the control and IL-13 treated cultures of a subject are connected by a line. Well-differential nasal airway epithelial cultures were generated and tested for a single donor denoted by red points. (FIG. 12B) Western blot of cell lysates for DPP4 in control and IL-13 treated BECs from all five donors.

[2] = test system: HRV-16; experiment: HRV-16 infection of ALI differentiated airway epithelial cells treated with IL-13; assay type: cell-based, human rhinovirus-16; conditions: IL-13 10 ng/ml for final 10 days of differentiation, BECs and NECs, vs vehicle

IL-13: Th2 cytokine used to treat airway epithelial cell cultures (10 ng/ml)
DPP4 gene expression in airway epithelial cells ([1]; ALI differentiated BEC from 5 donors, qPCR, vs vehicle control): strongly induced | DPP4 protein expression in airway epithelial cells ([1]; BEC cell lysates from five donors, Western blot, vs control): strongly induced | HRV-16 infection (mRNA) of ALI differentiated airway epithelial cells [2]: decreases HRV-16 infection
